The target of assay [1] is T1, CRFR1 (human CRF receptor 1, corticotropin-releasing factor receptor 1) (Homo sapiens, UniProt P34998).
T1 construct: gene CRHR1; receptor expressed in transfected CHO cells (Cerep)
T1 sequence (P34998 24-415): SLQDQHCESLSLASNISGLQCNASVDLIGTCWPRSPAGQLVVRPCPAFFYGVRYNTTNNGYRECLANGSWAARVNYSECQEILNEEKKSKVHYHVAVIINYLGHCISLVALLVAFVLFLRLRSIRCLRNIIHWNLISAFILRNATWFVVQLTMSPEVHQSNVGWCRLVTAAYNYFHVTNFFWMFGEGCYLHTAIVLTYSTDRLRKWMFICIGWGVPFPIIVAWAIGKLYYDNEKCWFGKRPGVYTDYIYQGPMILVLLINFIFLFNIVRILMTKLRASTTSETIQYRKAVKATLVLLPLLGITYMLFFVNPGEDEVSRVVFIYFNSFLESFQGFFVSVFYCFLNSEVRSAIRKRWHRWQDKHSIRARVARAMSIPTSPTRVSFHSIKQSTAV
The assay can be described thus: HTRF cAMP assay, antagonist mode, transfected CHO cells; KB from IC50 by modified Cheng-Prusoff equation. The format is cell-based. The source says:
HTRF cAMP assay, antagonist mode, transfected CHO cells; KB from IC50 by modified Cheng-Prusoff equation on CRFR1 (human CRF receptor 1, corticotropin-releasing factor receptor 1)

Assay [2] deals with T1, CRFR1 (human CRF receptor 1, corticotropin-releasing factor receptor 1). Description: HTRF cAMP assay, antagonist mode, transfected CHO cells. The format is cell-based. The source says:
HTRF cAMP assay, antagonist mode, transfected CHO cells on CRFR1 (human CRF receptor 1, corticotropin-releasing factor receptor 1)

One may read the Kb as the affinity of an antagonist, worked out from how it opposes an agonist. Read a low Kb as a more potent antagonist. By IC50 is commonly meant the point on the concentration scale where inhibition reaches its midpoint. A low value points to greater potency in that assay. `COc1c(CC=C(C)C)c(O)cc2oc(=O)c(-c3ccc(O)cc3O)cc12` [Glycycoumarin] displayed a Kb in assay [1] of 1300 nM. The IC50 in assay [2] worked out at 52 µM.
On the same counts, the results for `CC1(C)[C@@H](O)CC[C@]2(C)[C@H]3C(=O)C=C4[C@@H]5C[C@@](C)(C(=O)O)CC[C@]5(C)CC[C@@]4(C)[C@]3(C)CC[C@@H]12` [Glycyrrhetic acid] are 350 nM and 14 µM.
In turn, `COc1ccc([C@@H]2CC(=O)c3c(O)cc(O)cc3O2)cc1O` [Hesperetin] gave an antagonist equilibrium constant (Kb) in assay [1] of 45000 nM. The molecule further displayed an IC50 in assay [2] of 130 µM.
In assay [1], `O=C(/C=C/c1ccc(O)cc1)c1ccc(O)cc1O` [Isoliquiritigenin] gave an antagonist dissociation constant (Kb) of 670 nM. This molecule yielded a 50% inhibitory concentration (IC50) in assay [2] of 28 µM.
Regarding `COc1ccc(-c2cc(=O)c3c(OC)c(OC)c(OC)c(OC)c3o2)cc1OC` [Nobiletin], the Kb in assay [1] is 360 nM. The same molecule showed an IC50 in assay [2] of 15 µM.
Regarding `COc1ccc(-c2cc(=O)c3c(OC)c(OC)c(OC)c(OC)c3o2)cc1` [Tangeretin], the antagonist dissociation constant (Kb) in assay [1] was 1500 nM. Moreover, the IC50 in assay [2] worked out at 60 µM.
In the case of `CCCCCCC/C=C/C(=O)CCc1ccc(O)c(OC)c1` [[8]-Shogaol], in assay [1], the Kb was determined as 1800 nM. Moreover, inhibition in assay [2] was half-maximal at 74 µM (IC50).

The values are drawn from publication PMC4897628, “CRF receptor 1 antagonism and brain distribution of active components contribute to the ameliorative effect of rikkunshito on stress-induced anorexia” (Scientific Reports, 2016).
